Results published in ChEMBL document CHEMBL1148186, “Structure of Benthophoenin, a New Free Radical Scavenger Produced by Streptomyces prunicolor” (J Nat Prod, 1993).
≈ marks a conversion by molar mass, not a printed value.

Columns and labels:
[1] = Antioxidant activity assessed as free radical scavenging activity; format: functional
[2] = Antioxidant activity assessed as inhibition of AAPH-induced rat erythrocytes hemolysis; format: functional, cell-based; settings: erythrocyte

IC50 [1]	Molecule	IC50 [2]
0.15 µg/mL (≈ 0.263 µM)	CC(C)=CCC/C(C)=C/CN1c2cc(C(=O)c3ccccc3)ccc2Nc2c(C(=O)O)cc(C(=O)c3ccccc3)cc21 [BENTHOPHOENIN]	0.8 µg/mL (≈ 1.4 µM)
10.8 µg/mL	VITAMIN E	
